# Source: patent publication US20240374631A1, “A COMPOSITION FOR IMPROVING GUT MICROBIOTA, BEHAVIOURAL PATTERN, ALPHA-SYNUCLEIN LEVELS, SLEEP PATTERN AND/OR SERUM MELATONIN” (GN Corporation Co Ltd, priority 2021, published 2024)
# Test system: gut microbiota
# Experiment: Gut microbiome analysis (16S rRNA sequencing of fecal samples) in STAM model of NASH
# Format: in vivo, C57BL/6J mice
# Conditions: post-intervention
# Excerpt: The study is reported in accordance with Animal Research: Reporting of In Vivo Experiments (ARRIVE) guidelines. C57BL/6J mice were obtained from Japan SLC, Inc. (Japan). All animals used in this study were cared for under the following guidelines: Act on Welfare and Management of Animals (Ministry of the Environment, Japan, Act No. 105 of Oct. 1, 1973), standards relating to the care and management of laboratory animals and relief of pain (Notice No. 88 of the Ministry of the Environment, Japan, Apr. 28, 2006) and the guidelines for proper conduct of animal experiments (Science Council of Japan, Jun. 1, 2006). Protocol approvals were obtained from SMC Laboratories, Japan's IACUC (Study reference no: […] Mice were maintained in a specific pathogen-free (SPF) facility under controlled conditions of temperature (23±3° C.), humidity (50±20%), lighting (12-hour artificial light and dark cycles; light from 8:00 to 20:00) and air exchange. The STAM model of NASH was induced as previously described [D10]. Mice were given a single subcutaneous injection of 200 μg streptozotocin (STZ, Sigma-Aldrich, USA) solution 2 days after birth and fed with a high-fat diet (HFD, 57 kcal % fat, Cat #HFD32, CLEA Japan, Inc., Japan) from 4-9 weeks of age. All mice develop liver steatosis and diabetes and at […] mice had established steatohepatitis, histologically. Studygroups: There were five study groups, described below. Eight mice were included in each study group. Eight NASH mice were orally administered vehicle supplemented with AFO-202 Beta Glucan at a dose of 1 mg/kg in a volume of 5 mL/kg once daily from 6 to 9 weeks of age. Eight NASH mice were orally administered vehicle supplemented with Telmisartan at a dose of 10 mg/kg once daily from 6 to 9 weeks of age. Frequency: Fecal samples were collected at the 6 weeks of age (before administration) and 9 weeks of age (before sacrifice). Procedure: At 6 weeks of age, fecal samples were collected from each mouse by clean catch method. […] A sterile petri dish was placed on the bench. Gently massage the abdomen, position the bottom of mouse over a fresh petri dish, and collect 1-2 fecal pellets. At sacrifice, fecal samples were aseptically collected from cecum. The tubes with feces were placed on ice immediately. These tubes were snap frozen in liquid nitrogen and stored at -80° C. for shipping. In this analysis, the 16S rRNA sequence data acquired by the next-generation sequencer from the fecal […] was used to perform community analysis using the QIIME2 program for microbial community analysis. The raw read data in FASTQ format output from the next-generation sequencer was trimmed to remove adapter sequences and low QV regions that may be included in the data. Cutadapt was used to remove adapter sequences from DNA sequencing reads. Trimmomatic was used as read trimming tool for Illumina NGS data. The adapter sequence was trimmed using the adapter trimming program “cutadapt” if the Trimming of the region at the end of the read sequence overlapped the corresponding sequence by at least one base (mismatch tolerance: 20%). When reads containing N were present in at least one of Read1 and Read2, both Read1 and Read2 were removed. Trimming of low QV regions was performed on the read data after processing using the QV trimming program “Trimmomatic” under the following conditions. The window of 20 bases is slid from the 5' side, and the area where the average QV is less than 20 is trimmed. After trimming, only the reads with more than 50 bases remaining in both Read1 and Read2 were taken as output. The microbial community analysis based on 16S rRNA sequence was performed on the sequence data trimmed in the previous section using the microbial community analysis program “QIIME2”. The annotation program “sklearn” included in QIIME2 is used to annotate the ASV (OTU) sequences. […]
smiles,measurement,setting,value
CCCc1nc2c(C)cc(-c3nc4ccccc4n3C)cc2n1Cc1ccc(-c2ccccc2C(=O)O)cc1 [Telmisartan],"Abundance: S24-7, —, —",line r298,0
same,"Abundance: Lachnospiraceae, —, —",line r300,60
same,"Abundance: Ruminococcaceae, Oscillospira, —",line r301,30
same,"Abundance: S24-7, —, —",line r302,0
same,"Abundance: —, —, —",line r303,107
same,"Abundance: Ruminococcaceae, Oscillospira, —",line r304,9
same,"Abundance: Bacteroidaceae, Bacteroides, acidifaciens",line r305,0
same,"Abundance: Bacteroidaceae, Bacteroides, acidifaciens",line r306,11
same,"Abundance: Lachnospiraceae, Dorea, —",line r307,8
same,"Abundance: Ruminococcaceae, Other, Other",line r308,11
same,"Abundance: Lachnospiraceae, —, —",line r309,13
same,"Abundance: Lachnospiraceae, —, —",line r310,0
same,"Abundance: S24-7, —, —",line r311,1
same,"Abundance: Lachnospiraceae, Other, Other",line r312,0
same,"Abundance: —, —, —",line r313,0
same,"Abundance: Ruminococcaceae, Oscillospira, —",line r314,9
same,"Abundance: Ruminococcaceae, Oscillospira, —",line r315,0
same,"Abundance: Lachnospiraceae, —, —",line r316,19
same,"Abundance: Erysipelotrichaceae, —, —",line r317,0
same,"Abundance: S24-7, —, —",line r318,0
same,"Abundance: Lachnospiraceae, —, —",line r319,9
same,"Abundance: Ruminococcaceae, Oscillospira, —",line r320,0
same,"Abundance: Lachnospiraceae, —, —",line r321,14
same,"Abundance: Other, Other, Other",line r322,0
same,"Abundance: F16, —, —",line r323,0
same,"Abundance: Christensenellaceae, —, —",line r324,5
same,"Abundance: Lachnospiraceae, Other, Other",line r325,0
same,"Abundance: Ruminococcaceae, Oscillospira, —",line r326,0
same,"Abundance: —, —, —",line r327,0
same,"Abundance: Ruminococcaceae, Other, Other",line r328,0
same,"Abundance: —, —, —",line r329,0
same,"Abundance: Lachnospiraceae, Other, Other",line r330,0
same,"Abundance: Other, Other, Other",line r331,0
same,"Abundance: Enterococcaceae, Vagococcus, —",line r332,26
same,"Abundance: Ruminococcaceae, Ruminococcus, —",line r333,0
same,"Abundance: Erysipelotrichaceae, Coprabacillus, —",line r334,0
same,"Abundance: Other, Other, Other",line r335,0
same,"Abundance: Ruminococcaceae, Oscillospira, —",line r336,9
same,"Abundance: Ruminococcaceae, Oscillospira, —",line r337,0
same,"Abundance: —, —, —",line r338,0
same,"Abundance: Lachnospiraceae, —, —",line r339,0
same,"Abundance: Ruminococcaceae, Oscillospira, —",line r340,31
same,"Abundance: Lachnospiraceae, Coprococcus, —",line r341,0
same,"Abundance: Ruminococcaceae, Other, Other",line r342,5
same,"Abundance: —, —, —",line r343,0
same,"Abundance: Erysipelotrichaceae, —, —",line r344,2
same,"Abundance: Rikenellaceae, —, —",line r345,11
same,"Abundance: —, —, —",line r346,0
same,"Abundance: —, —, —",line r347,40
same,"Abundance: —, —, —",line r348,0
same,"Abundance: Lachnospiraceae, —, —",line r349,0
same,"Abundance: —, —, —",line r350,0
same,"Abundance: Lachnospiraceae, Clostridium, Other",line r351,28
same,"Abundance: Erysipelotrichaceae, —, —",line r352,0
same,"Abundance: Streptococcaceae, Streptococcus, minor",line r353,0
same,"Abundance: Ruminococcaceae, Oscillospira, —",line r354,0
same,"Abundance: —, —, —",line r355,0
same,"Abundance: Lachnospiraceae, Other, Other",line r356,0
same,"Abundance: Other, Other, Other",line r357,0
same,"Abundance: —, —, —",line r358,0
same,"Abundance: —, —, —",line r359,0
same,"Abundance: Lachnospiraceae, —, —",line r362,12
same,"Abundance: Streptococcaceae, Streptococcus, —",line r363,0
same,"Abundance: S24-7, —, —",line r365,0
same,"Abundance: Other, Other, Other",line r367,42
same,"Abundance: [Mogibacteriaceae], —, —",line r368,0
same,"Abundance: Enterobacteriaceae, Enterobacter, Other",line r369,0
same,"Abundance: Erysipelotrichaceae, —, —",line r371,19
same,"Abundance: Aerococcaceae, Aerococcus, —",line r372,39
same,"Abundance: Ruminococcaceae, Oscillospira, —",line r373,0
same,"Abundance: Ruminococcaceae, Oscillospira, —",line r374,12
same,"Abundance: Other, Other, Other",line r375,0
same,"Abundance: Lachnospiraceae, Coprococcus, —",line r377,0
same,"Abundance: Other, Other, Other",line r378,0
same,"Abundance: Family Lachnospiraceae, Genus Other, Species Other",table row r380,0
same,"Abundance: Family Ruminococcaceae, Genus Oscillospira, Species —",table row r381,0
same,"Abundance: Family S24-7, Genus —, Species —",table row r382,0
same,"Abundance: Family Ruminococcaceae, Genus Ruminococcus, Species —",table row r383,0
same,"Abundance: Family Ruminococcaceae, Genus Oscillospira, Species —",table row r384,0
same,"Abundance: Family Ruminococcaceae, Genus Ruminococcus, Species —",table row r389,0
same,"Abundance: Family Lachnospiraceae, Genus —, Species —",table row r390,0
same,"Abundance: Family Ruminococcaceae, Genus Oscillospira, Species —",table row r391,0
same,"Abundance: Family Corynebacteriaceae, Genus Corynebacterium, Species stationis",table row r394,0
same,"Abundance: Family Ruminococcaceae, Genus Other, Species Other",table row r395,0
same,"Abundance: Family S24-7, Genus —, Species —",table row r396,13
same,"Abundance: Family Ruminococcaceae, Genus Oscillospira, Species —",table row r397,26
same,"Abundance: Family Ruminococcaceae, Genus Oscillospira, Species —",table row r398,0
same,"Abundance: Family Ruminococcaceae, Genus Ruminococcus, Species —",table row r399,0
same,"Abundance: Family [Mogibacteriaceae], Genus —, Species —",table row r400,0
same,"Abundance: Family Erysipelotrichaceae, Genus Coprobacillus, Species —",table row r401,0
same,"Abundance: Family Erysipelotrichaceae, Genus Clostridium, Species cocleatum",table row r402,1
same,"Abundance: Family S24-7, Genus —, Species —",table row r403,0
same,"Abundance: Family Coriobacteriaceae, Genus —, Species —",table row r404,0
same,"Abundance: Family Coriobacteriaceae, Genus Adlercreutzia, Species —",table row r405,0
same,"Abundance: Family Enterococcaceae, Genus Vagococcus, Species —",table row r407,0
same,"Abundance: Family [Mogibacteriaceae], Genus —, Species —",table row r409,6
same,"Abundance: Family S24-7, Genus —, Species —",table row r413,11
same,"Abundance: Family Ruminococcaceae, Genus Oscillospira, Species —",table row r414,0
same,"Abundance: Family Planococcaceae, Genus Sporosarcina, Species —",table row r415,0
same,"Abundance: Family Erysipelotrichaceae, Genus Other, Species Other",table row r417,0
same,"Abundance: Family Ruminococcaceae, Genus Ruminococcus, Species —",table row r419,0
same,"Abundance: Family Coriobacteriaceae, Genus Adlercreutzia, Species —",table row r423,0
same,"Abundance: Family Other, Genus Other, Species Other",table row r424,0
same,"Abundance: Family Ruminococcaceae, Genus Other, Species Other",table row r425,0
